Patent US7053175B1, “Synthetic peptides useful in biological assays for detecting infections caused by group O HIV-1 viruses” (Bio-Rad Pasteur, priority 1997, dated 2006)
No end group written: not given here.

Tested on: sera from patients infected with group O HIV-1 retroviruses
Experiment: Immunoenzymatic test: Test No. 1 (immunoreactivity of peptides coated on microplates)
Type: binding, human
Design: key to ABSORBANCE: >: signal greater than the reading capacity of the spectrophotometer
Settings: cyclized peptide 2 μg/ml
In short: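 Peptides coated at 2 μg/ml in 0.1 M carbonate buffer overnight. Sera from group O HIV-1-infected patients, diluted 1/5, incubated 30 min at 40° C, then HRP anti-human IgG/IgM, OPD development, A490-A620 read. Cut-off 0.15 = mean of 48 HIV-negative sera plus 12 SD.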

With “RLLALETFIEENELLNLWGCKNRAICYTSVKWNKT (cysteine pairing not given here) [VAU 35 AA, reference compound]” the ABSORBANCE (serum 134) was “>”, the ABSORBANCE (serum 402) was “>” and the ABSORBANCE (serum 625) was 2.585. The ABSORBANCE (serum 1062) was “>”, the ABSORBANCE (serum 1105*) was 0.129 and the ABSORBANCE (serum 1581) was 0.894. The ABSORBANCE (serum 1702) was “>”, the ABSORBANCE (serum 1754) was 1.948 and the ABSORBANCE (serum 2294) was “>”. The ABSORBANCE (serum 2312) was “>”, the ABSORBANCE (serum 2313) was “>” and the ABSORBANCE (serum 2352) was “>”. For the same sequence, the ABSORBANCE (serum 2551) was “>”, the ABSORBANCE (serum 2700) was “>” and the ABSORBANCE (serum 3016) was “>”. For the same sequence, the ABSORBANCE (serum 3136) was “>”, the ABSORBANCE (serum 3235) was “>” and the ABSORBANCE (serum 3236) was “>”. For the same sequence, the ABSORBANCE (serum 3302) was “>”, the ABSORBANCE (serum 3482) was “>” and the ABSORBANCE (serum 3529) was “>”. For the same sequence, the ABSORBANCE (serum 3600*) was “>”, the ABSORBANCE (serum 3627*) was “>” and the ABSORBANCE (serum 3637) was 1.647. The ABSORBANCE (serum 3653) was 1.322, the ABSORBANCE (serum 3771) was “>” and the ABSORBANCE (serum 3884*) was “>”. For the same sequence, the ABSORBANCE (serum 3891) was “>”, the ABSORBANCE (serum 3935) was 0.227 and the ABSORBANCE (serum 3945) was “>”. For the same sequence, the ABSORBANCE (serum 4021*) was 1.957, the ABSORBANCE (serum 4364) was “>” and the ABSORBANCE (serum 4434) was “>”. For the same sequence, the ABSORBANCE (serum 4477) was “>”, the ABSORBANCE (serum 4489*) was 1.718 and the ABSORBANCE (serum 5149*) was “>”. The ABSORBANCE (serum 5164) was “>”, the ABSORBANCE (serum 5210) was “>” and the ABSORBANCE (serum 5270*) was “>”. For the same sequence, the ABSORBANCE (serum 5373) was 0.856, the ABSORBANCE (serum 5453) was 1.482 and the ABSORBANCE (serum 5766*) was “>”. The ABSORBANCE (serum 5931) was 2.225, the ABSORBANCE (serum 5969*) was “>” and the ABSORBANCE (serum 6111) was “>”. The ABSORBANCE (serum 6165) was “>”, the ABSORBANCE (serum 6198*) was “>” and the ABSORBANCE (serum 6295*) was “>”. The ABSORBANCE (serum 6487) was 2.891, the ABSORBANCE (serum 6512*) was 0.174 and the ABSORBANCE (serum 6627) was “>”. The ABSORBANCE (serum 6689*) was “>”, the ABSORBANCE (serum 6697) was “>” and the ABSORBANCE (serum 6782) was 2.214. The ABSORBANCE (serum 6891) was 0.496, the ABSORBANCE (serum 6976*) was “>” and the ABSORBANCE (serum 6998) was “>”. The ABSORBANCE (serum 7007) was 2.151, the ABSORBANCE (serum 7120) was “>” and the ABSORBANCE (serum 7212) was “>”. The ABSORBANCE (serum 7258*) was “>”, the ABSORBANCE (serum 7297*) was “>” and the ABSORBANCE (serum 7439) was “>”. For the same sequence, the ABSORBANCE (serum 7443) was 0.574, the ABSORBANCE (serum DUR*) was 0.872 and the ABSORBANCE (serum ESS*) was “>”. For the same sequence, the ABSORBANCE (serum HAD) was 0.871 and the ABSORBANCE (serum VAU*) was “>”.
